Data as given in patent publication US20200172491A1, “SUBSTITUTED 5-(HET-)ARYLPYRAZOLAMIDES AND SALTS THEREOF AND THEIR USE AS HERBICIDAL ACTIVE SUBSTANCES” (Bayer CropScience Aktiengesellschaft, priority 2017, published 2020).

Columns and labels:
Format in all cases: in vivo
[1] = system: Stellaria media; assay: Pre-emergence herbicidal action; conditions: 320 g/ha, scored after about 3 weeks, 100% = plants have died, 0% = like control plants
Text: (§1) Seeds of monocotyledonous and dicotyledonous weed plants and crop plants were placed in plastic or wood-fiber pots and covered with soil. The compounds of the invention, formulated in the form of wettable powders (WP) or as emulsion concentrates (EC), were then applied to the surface of the covering soil as aqueous suspension or emulsion with addition of 0.5% additive at a water application rate equivalent to 600 l/ha. After the treatment, the pots were placed in a greenhouse and kept under good growth conditions for the test plants. After about 3 weeks, the effect of the preparations is scored visually in comparison with untreated controls as percentages. For example, 100% activity=the plants have died, 0% activity=like control plants. Tables B7 to B11 below show the effects of selected compounds of the general formula (I) according to Table A1 at an application rate of 320 g/ha on various harmful plants, which were obtained by the aforementioned experimental procedure.

[2] = system: Veronica persica; assay: Pre-emergence herbicidal action; conditions: 320 g/ha, scored after about 3 weeks, 100% = plants have died, 0% = like control plants
Text: as §1

[3] = system: Matricaria inodora; assay: Pre-emergence herbicidal action; conditions: 320 g/ha, scored after about 3 weeks, 100% = plants have died, 0% = like control plants
Text: as §1

[4] = system: Amaranthus retroflexus; assay: Pre-emergence herbicidal action; conditions: 320 g/ha, scored after about 3 weeks, 100% = plants have died, 0% = like control plants
Text: as §1

[5] = system: Ipomoea purpurea; assay: Post-emergence herbicidal action; conditions: 320 g/ha, rated after about 3 weeks, 100% = plants have died, 0% = like control plants
Experimental: (§2) Seeds of monocotyledonous and dicotyledonous weeds and crop plants were placed in sandy loam in plastic or wood-fiber pots, covered with soil and cultivated in a greenhouse under controlled growth conditions. 2 to 3 weeks after sowing, the test plants were treated at the one-leaf stage. The compounds of the invention, formulated in the form of wettable powders (WP) or as emulsion concentrates (EC), were then sprayed onto the green parts of the plants as aqueous suspension or emulsion with addition of 0.5% additive at a water application rate of 600 l/ha (converted). After the test plants had been kept in the greenhouse under optimum growth conditions for about 3 weeks, the activity of the preparations was rated visually in comparison to untreated controls. For example, 100% activity=the plants have died, 0% activity=like control plants. Tables B1 to B6 below show the effects of selected compounds of the general formula (I) according to Table A1 at an application rate of 320 g/ha on various harmful plants, which were obtained by the aforementioned experimental procedure.

[6] = system: Stellaria media; assay: Post-emergence herbicidal action; conditions: 320 g/ha, rated after about 3 weeks, 100% = plants have died, 0% = like control plants
Experimental: as §2

[7] = system: Viola tricolor; assay: Post-emergence herbicidal action; conditions: 320 g/ha, rated after about 3 weeks, 100% = plants have died, 0% = like control plants
Experimental: as §2

[8] = system: Matricaria inodora; assay: Post-emergence herbicidal action; conditions: 320 g/ha, rated after about 3 weeks, 100% = plants have died, 0% = like control plants
Experimental: as §2

[9] = system: Amaranthus retroflexus; assay: Post-emergence herbicidal action; conditions: 320 g/ha, rated after about 3 weeks, 100% = plants have died, 0% = like control plants
Experimental: as §2

[10] = system: Viola tricolor; assay: Pre-emergence herbicidal action; conditions: 320 g/ha, scored after about 3 weeks, 100% = plants have died, 0% = like control plants
Text: as §1

Structure (SMILES)	herbicidal activity on Stellaria media (visual rating vs untreated controls) [1] [%]	herbicidal activity on Veronica persica (visual rating vs untreated controls) [2] [%]	herbicidal activity on Matricaria inodora (visual rating vs untreated controls) [3] [%]	herbicidal activity on Amaranthus retroflexus (visual rating vs untreated controls) [4] [%]	herbicidal activity on Ipomoea purpurea (visual rating vs untreated controls) [5] [%]	herbicidal activity on Stellaria media (visual rating vs untreated controls) [6] [%]	herbicidal activity on Viola tricolor (visual rating vs untreated controls) [7] [%]	herbicidal activity on Matricaria inodora (visual rating vs untreated controls) [8] [%]	herbicidal activity on Amaranthus retroflexus (visual rating vs untreated controls) [9] [%]	herbicidal activity on Viola tricolor (visual rating vs untreated controls) [10] [%]
Cc1nn(C)c(-c2ccc(F)cc2Cl)c1C(=O)Nc1cccc(F)c1 [I-027]	100	100	100	100	100	100	100	100	100	–
Cc1nn(C)c(-c2ccc(F)cc2Cl)c1C(=O)Nc1ccc(F)nc1 [I-023]	100	–	90	–	–	100	–	–	90	–
Cc1nn(C)c(-c2ccc(F)cc2Cl)c1C(=O)Nc1ccc(Cl)cc1 [I-024]	–	–	–	–	–	100	100	–	100	–
Cc1nn(C)c(-c2ccc(F)cc2Cl)c1C(=O)Nc1ccccc1 [I-002]	100	–	100	100	80	100	100	100	100	100
Cc1nn(C)c(-c2ccc(F)cc2Cl)c1C(=O)Nc1ccc(F)cc1 [I-007]	100	–	–	90	–	80	–	–	100	–
Cc1nn(C)c(-c2ccc(F)cc2Cl)c1C(=O)NC1CCCCC1 [I-018]	–	–	–	–	–	–	–	–	80	–
CCn1nc(C)c(C(=O)Nc2c(Cl)cccc2Cl)c1-c1ccc(F)cc1Cl [I-026]	–	–	–	–	–	–	80	–	90	–
Cc1nn(C)c(-c2ccc(F)cc2Cl)c1C(=O)Nc1c(F)cc(F)cc1F [I-025]	100	–	100	100	80	90	100	100	100	100
Cc1nn(C)c(-c2ccc(F)cc2Cl)c1C(=O)Nc1cc(Cl)ccc1F [I-021]	100	–	100	100	–	100	100	–	100	100
Cc1nn(C)c(-c2cc(F)ccc2Cl)c1C(=O)Nc1c(Cl)cccc1Cl [I-014]	–	–	–	–	–	90	100	–	80	–
Cc1nn(C)c(-c2ccc(F)cc2Cl)c1C(=O)Nc1ccccc1F [I-006]	100	–	90	100	–	100	100	–	100	100
Cc1nn(C)c(-c2ccc(F)cc2Cl)c1C(=O)NC1CCCC1 [I-003]	80	–	90	–	–	–	–	–	100	–
Cc1cccnc1NC(=O)c1c(C)nn(C)c1-c1ccc(F)cc1Cl [I-010]	–	–	100	100	–	100	100	–	100	–
Cc1nn(C)c(-c2ccc(F)cc2Cl)c1C(=O)Nc1cccnc1F [I-031]	90	–	100	100	–	100	100	–	100	80
Cc1nn(C)c(-c2ccc(F)cc2Cl)c1C(=O)Nc1ncccc1F [I-011]	80	–	–	80	–	80	–	–	90	–
Cc1nn(C)c(-c2ccc(F)cc2Cl)c1C(=O)Nc1cncc(F)c1 [I-032]	–	–	100	100	90	100	100	100	100	–
Cc1nn(C)c(-c2ccc(F)cc2Cl)c1C(=O)Nc1cc(Cl)cc(Cl)c1 [I-020]	90	–	100	100	–	–	100	–	100	80
Cc1nn(C)c(-c2ccc(F)cc2)c1C(=O)Nc1c(Cl)cccc1Cl [I-033]	–	–	–	–	–	–	80	–	80	–
Cc1nn(C)c(-c2ccc(F)cc2Cl)c1C(=O)Nc1cc(Cl)ccc1Cl [I-017]	–	–	80	100	–	100	90	–	100	–
